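How tested: cells in 96-well plates exposed to compound for 48 hours at five concentrations. GI50 is the concentration that inhibits growth by half.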 Calls of active or inactive are those of the source. No stated cut-off is given here; in the data, active = GI50 up to about 1.1 µM and inactive = higher.
Assays:
Test in all cases: NCI anticancer screen, dose series, 48 h
HCT-116 = test system: HCT-116
EKVX = test system: EKVX
T47D = test system: T47D
SN12C = test system: SN12C
SNB-19 = test system: SNB-19
SW-620 = test system: SW-620
SK-OV-3 = test system: SK-OV-3
Malme-3M = test system: Malme-3M
NCI-H522 = test system: NCI-H522
SK-MEL-5 = test system: SK-MEL-5
ACHN = test system: ACHN
MOLT-4 = test system: MOLT-4
COLO 205 = test system: COLO 205
KM12 = test system: KM12
RXF 393 = test system: RXF 393
MDA-MB-231 = test system: MDA-MB-231
HOP-92 = test system: HOP-92
OVCAR-3 = test system: OVCAR-3
SK-MEL-2 = test system: SK-MEL-2
MDA-N = test system: MDA-N

| Structure (SMILES) | GI50 (HCT-116) | GI50 (EKVX) | GI50 (T47D) | GI50 (SN12C) | GI50 (SNB-19) | GI50 (SW-620) | GI50 (SK-OV-3) | GI50 (Malme-3M) | GI50 (NCI-H522) | GI50 (SK-MEL-5) | GI50 (ACHN) | GI50 (MOLT-4) | GI50 (COLO 205) | GI50 (KM12) | GI50 (RXF 393) | GI50 (MDA-MB-231) | GI50 (HOP-92) | GI50 (OVCAR-3) | GI50 (SK-MEL-2) | GI50 (MDA-N) |
| --- | --- | --- | --- | --- | --- | --- | --- | --- | --- | --- | --- | --- | --- | --- | --- | --- | --- | --- | --- | --- |
| N=c1oc2ccccc2cc1C(=O)Nc1nccs1 | 26.8 µM (inactive) | 25.1 µM (inactive) | 14.1 µM (inactive) | 46.9 µM (inactive) | 52.2 µM (inactive) | 19.9 µM (inactive) | 7.78 µM (inactive) | 35.6 µM (inactive) | 0.647 µM (active) | 31 µM (inactive) | 4.54 µM (inactive) | 4.8 µM (inactive) | 14.6 µM (inactive) | 34.3 µM (inactive) | 17.5 µM (inactive) | 33.7 µM (inactive) | 32.5 µM (inactive) | 9.31 µM (inactive) | 26.9 µM (inactive) |  |
| COC(=O)[C@@]1(O)CC(C)C=C1C=O (stereo partly specified) | 20.8 µM (inactive) | > 100 µM (inactive) |  | > 100 µM (inactive) | > 100 µM (inactive) | 40.1 µM (inactive) | > 100 µM (inactive) | > 100 µM (inactive) | 20 µM (inactive) | > 100 µM (inactive) | > 100 µM (inactive) | 60.8 µM (inactive) | > 100 µM (inactive) | 67.5 µM (inactive) | 15.8 µM (inactive) |  | > 100 µM (inactive) | 53.6 µM (inactive) | > 100 µM (inactive) |  |
| COc1cc2oc(=O)cc(C)c2cc1OC | > 100 µM (inactive) | > 100 µM (inactive) |  | > 100 µM (inactive) | > 100 µM (inactive) | > 100 µM (inactive) | > 100 µM (inactive) | > 100 µM (inactive) |  | > 100 µM (inactive) | > 100 µM (inactive) | > 100 µM (inactive) | > 100 µM (inactive) | > 100 µM (inactive) |  | > 100 µM (inactive) |  | > 100 µM (inactive) | > 100 µM (inactive) | > 100 µM (inactive) |
| Nc1ccc(C(=O)N/C(=C\c2ccc3c(c2)OCO3)c2nc3ccc4c(c3[nH]2)C(=O)c2ccccc2C4=O)cc1 | 23.8 µM (inactive) | 31.8 µM (inactive) |  | 30.1 µM (inactive) | 30 µM (inactive) | 27.2 µM (inactive) | 23.1 µM (inactive) | 61.8 µM (inactive) | 6.75 µM (inactive) | 29 µM (inactive) | 13.9 µM (inactive) | 4.75 µM (inactive) | 52.6 µM (inactive) | 17.8 µM (inactive) | 10.5 µM (inactive) |  | 17.5 µM (inactive) | 32.9 µM (inactive) | 21.1 µM (inactive) |  |
| N#CC(/C(CCCC(=O)Nc1cccc([N+](=O)[O-])c1)=N\NC(=O)c1c(O)ccc2ccccc12)c1nc2ccccc2s1 (stereo unspecified) | 8.43 µM (inactive) | 35.4 µM (inactive) |  | 25.6 µM (inactive) | 36.8 µM (inactive) | 44.8 µM (inactive) | 25.5 µM (inactive) | 35 µM (inactive) | 25.8 µM (inactive) | 28.2 µM (inactive) | 20.7 µM (inactive) | 11.7 µM (inactive) | 30.1 µM (inactive) | 28.8 µM (inactive) | 33.4 µM (inactive) |  | 53.1 µM (inactive) | 16.3 µM (inactive) | 27.1 µM (inactive) |  |
| CCC1OC2C(CC=C(C)C)=C3OC(C)(O)C(C)(CC)C(=O)C3=C3OC(=O)C=C1C32 (stereo unspecified) | 15.5 µM (inactive) | 29.4 µM (inactive) | 66.2 µM (inactive) |  | 27.4 µM (inactive) | 27.5 µM (inactive) | > 100 µM (inactive) |  |  | 16.5 µM (inactive) | 26.3 µM (inactive) | 20.2 µM (inactive) | 20.5 µM (inactive) | 34.4 µM (inactive) |  | 15.5 µM (inactive) | 21.7 µM (inactive) |  | 17.3 µM (inactive) |  |
| COC1(OC)c2ccccc2C2(O)c3ccccc3C(=O)C12 (stereo unspecified) | 70.8 µM (inactive) | 48.8 µM (inactive) |  | 60.8 µM (inactive) | 74.5 µM (inactive) | 71 µM (inactive) | 70.1 µM (inactive) | 38 µM (inactive) | 10.2 µM (inactive) | 9.16 µM (inactive) | 34.1 µM (inactive) | 10.9 µM (inactive) | 13.4 µM (inactive) | 39.9 µM (inactive) | > 100 µM (inactive) |  | 46.6 µM (inactive) | 28.8 µM (inactive) | 38.1 µM (inactive) |  |
| Cc1nc(-[n+]2nc(-c3ccncc3)nn2-c2ccccc2)sc1C | 13.4 µM (inactive) | 27.2 µM (inactive) | 39.4 µM (inactive) | 49.4 µM (inactive) | 35.9 µM (inactive) | 20.2 µM (inactive) | 21.2 µM (inactive) | > 100 µM (inactive) | 3.15 µM (inactive) | 29.4 µM (inactive) | 4.8 µM (inactive) | 4.72 µM (inactive) | 34.4 µM (inactive) | 36.9 µM (inactive) | 18.7 µM (inactive) | 32.1 µM (inactive) |  |  | > 100 µM (inactive) |  |
| CCN(C(C)=N)c1ccccc1 | 48.9 µM (inactive) | 52.8 µM (inactive) |  | 70 µM (inactive) | 78.7 µM (inactive) | > 100 µM (inactive) | > 100 µM (inactive) | > 100 µM (inactive) | 50.2 µM (inactive) | 35.1 µM (inactive) | 61.5 µM (inactive) | 72.6 µM (inactive) | > 100 µM (inactive) | > 100 µM (inactive) | > 100 µM (inactive) |  | 60.4 µM (inactive) | > 100 µM (inactive) | > 100 µM (inactive) |  |
| COC(=O)c1nsc(OC)c1Cl | > 100 µM (inactive) | > 100 µM (inactive) |  | > 100 µM (inactive) | > 100 µM (inactive) | > 100 µM (inactive) | > 100 µM (inactive) | > 100 µM (inactive) |  | > 100 µM (inactive) |  | > 100 µM (inactive) | > 100 µM (inactive) | > 100 µM (inactive) | > 100 µM (inactive) | > 100 µM (inactive) |  | > 100 µM (inactive) |  | > 100 µM (inactive) |
| COc1ccc(C(=O)OC2C=COC(C)C2OC(=O)c2ccc(OC)cc2)cc1 (stereo unspecified) | 10.2 µM (inactive) | 36.9 µM (inactive) |  | 23.3 µM (inactive) | 41.5 µM (inactive) | 15.6 µM (inactive) | > 100 µM (inactive) | 18.2 µM (inactive) | 16.5 µM (inactive) | 16.7 µM (inactive) | 42.4 µM (inactive) | 16.3 µM (inactive) | 42.8 µM (inactive) | 19.1 µM (inactive) | 14.6 µM (inactive) |  | 17.5 µM (inactive) | 16.6 µM (inactive) | 17.5 µM (inactive) |  |
| CC1OC(n2ccc3ccc([N+](=O)[O-])cc32)C(O)C(O)C1O (stereo unspecified) | > 100 µM (inactive) | > 100 µM (inactive) |  | > 100 µM (inactive) | > 100 µM (inactive) | > 100 µM (inactive) | > 100 µM (inactive) | > 100 µM (inactive) | > 100 µM (inactive) | > 100 µM (inactive) | > 100 µM (inactive) | > 100 µM (inactive) | > 100 µM (inactive) | > 100 µM (inactive) | > 100 µM (inactive) |  | > 100 µM (inactive) | > 100 µM (inactive) | > 100 µM (inactive) |  |
| Cc1ccc(S(=O)(=O)N/N=C(\C(=O)Nc2cccc([N+](=O)[O-])c2)c2nc3ccc([N+](=O)[O-])cc3nc2O)cc1 | 27.5 µM (inactive) | 33.5 µM (inactive) |  | > 100 µM (inactive) | > 100 µM (inactive) | 40.6 µM (inactive) | > 100 µM (inactive) | 77.3 µM (inactive) | 5.66 µM (inactive) | 26 µM (inactive) | 13.8 µM (inactive) | 24 µM (inactive) | 28.2 µM (inactive) | 37.9 µM (inactive) | > 100 µM (inactive) |  | > 100 µM (inactive) | > 100 µM (inactive) | > 100 µM (inactive) |  |
| CN(C)CCNC(=O)c1cccc2nc3c(Cl)cccc3nc12 | 3.16 µM (inactive) | 8.61 µM (inactive) |  | 4.52 µM (inactive) | 8.13 µM (inactive) | 3.92 µM (inactive) | 17.3 µM (inactive) | 2 µM (inactive) | 14.3 µM (inactive) | 5.06 µM (inactive) | 3.13 µM (inactive) | 2.38 µM (inactive) | 3.75 µM (inactive) | 5.75 µM (inactive) | 3.4 µM (inactive) |  | 2.84 µM (inactive) | 6.38 µM (inactive) | 5.22 µM (inactive) |  |
| Cc1ccc(S(=O)(=O)N2CCCSCCSCCCSCC2)cc1 | > 100 µM (inactive) | > 100 µM (inactive) | > 100 µM (inactive) | > 100 µM (inactive) | > 100 µM (inactive) | > 100 µM (inactive) | > 100 µM (inactive) |  | > 100 µM (inactive) | > 100 µM (inactive) |  | > 100 µM (inactive) | > 100 µM (inactive) | > 100 µM (inactive) |  | > 100 µM (inactive) | > 100 µM (inactive) | > 100 µM (inactive) |  |  |
| C[C@]12CCC3[C@@H](CC[C@@H]4c5nonc5CC[C@]34C)C1CCC(=O)N2 (stereo partly specified) | > 100 µM (inactive) | 68.9 µM (inactive) |  | > 100 µM (inactive) | > 100 µM (inactive) | > 100 µM (inactive) | > 100 µM (inactive) | > 100 µM (inactive) | 56.1 µM (inactive) | > 100 µM (inactive) | > 100 µM (inactive) | > 100 µM (inactive) | > 100 µM (inactive) | > 100 µM (inactive) | > 100 µM (inactive) |  | 95.7 µM (inactive) | > 100 µM (inactive) | 0.356 µM (active) |  |

— ChEMBL document CHEMBL1201862, “PubChem BioAssay data set” (2004)
